Data set [1] addresses T1, human sex Hormone Binding Globulin (SHBG) (Homo sapiens, UniProt P04278).
T1 construct: Human SHBG was purified from transgenic mouse serum; made in house; host or cells: transgenic mouse (serum)
T1 sequence (P04278 30-402): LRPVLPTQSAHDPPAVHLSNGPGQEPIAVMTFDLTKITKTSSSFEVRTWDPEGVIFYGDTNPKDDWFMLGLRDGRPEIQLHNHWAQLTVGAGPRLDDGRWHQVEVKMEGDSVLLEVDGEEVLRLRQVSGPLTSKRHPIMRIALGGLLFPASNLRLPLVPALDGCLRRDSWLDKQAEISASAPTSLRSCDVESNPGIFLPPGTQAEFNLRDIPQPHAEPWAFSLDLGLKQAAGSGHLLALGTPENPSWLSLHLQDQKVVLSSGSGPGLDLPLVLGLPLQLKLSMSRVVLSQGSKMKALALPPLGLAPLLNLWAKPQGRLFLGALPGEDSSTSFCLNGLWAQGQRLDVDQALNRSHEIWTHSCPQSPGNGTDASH
As to the kind of experiment: Competitive steroid-binding assay for human SHBG. The settings on record: for relative binding affinity for human SHBG: rank order ethinylestradiol < 17β-estradiol < testosterone < 5α-dihydrotestosterone. The procedure: Human SHBG was treated for 30 min at room temperature with a dextran-coated charcoal (DCC) suspension in phosphate buffered saline (PBS) to remove any steroid ligand. After centrifugation (2,000×g for 10 min) to sediment the DCC, the supernatant containing the human SHBG was diluted in PBS to a concentration of 1 nM based on its steroid binding capacity.
The average amounts of [^3H]labeled ligands bound to SHBG at each concentration of competitor (B) were expressed as a percentage of the average amounts of [^3H]labeled ligands bound to SHBG in the absence of competitor (B0), and were plotted against the concentration of competitor in each assay tube.

For another data set, the system named is four-day cyclic rats. As to the kind of experiment: Antiovulatory bioassay after oral administration. It counts as in vivo, rat. The settings on record: for ED50: Rattus norvegicus, 96 h. On the procedure: A bioassay method (modified according to De Visser et al., 1984, Arzneim. […].
Rats are spontaneously ovulating, polyestrous mammals. Generally, proestrus lasts for 12 to 14 hours, estrus for 25 to 27 hours, metestrus for 6 to 8 hours, and diestrus for 55 to 57 hours (Freeman, 1988, In: The Physiology of Reproduction, E Knobil and J Neill (eds). Raven Press, Ltd, New York, pp. 1893-1928). These stages of the estrous cycle can be classified based on the cell types present in daily vaginal smears (Schwartz, 1969, Recent Prog. Horm. Res. 25, 1-55).
The preovulatory period of the rat estrous cycle is characterized by ovarian follicular growth and enhanced estrogen secretion. In the four-day cyclic rat, peripheral plasma levels of E2 are basal through estrus. At the end of metestrus and extending through early diestrus, plasma levels of E2 begin to rise. This increase continues through diestrus and early proestrus to reach peak values and plateau by mid-proestrus. Subsequently, E2 levels fall rapidly, reaching basal values by the early morning hours of estrus. The rising estrogen levels from late metestrus to early proestrus exert a positive feedback effect on the hypothalamic-pituitary axis resulting in a luteinizing hormone (LH) surge on the afternoon of proestrus. The LH surge induces follicular rupture and the release of ova in the early morning hours of estrus. By early afternoon on the day of estrus, ova are present in the ampulla of the oviduct and are readily visualized under a dissecting microscope.
Progesterone or levonorgestrel administered subcutaneously on diestrus to four-day cyclic rats is known to inhibit ovulation and increased the estrous cycle length in a dose-dependent manner (Beattie and Corbin, 1975, Endocrinology 97, 885-890). It was shown that the progestational block of ovulation takes place predominately via the hypothalamic-pituitary axis.
Vaginal smears from female rats were obtained daily for two weeks to identify four-day cycling rats. Only four-day cyclic rats were used for the antiovulatory bioassay. […] Twice daily dosing continued for an additional 3 consecutive days. One day after the final dose (day 5), the rats were euthanized by CO2 asphyxiation at approximately 1 pm, and the number of ova per oviduct was determined and recorded. Group means were calculated for the number of ova per ovulated rat (both oviducts). The ratio of rats ovulating for each treatment group was compared to the ratio for the vehicle-treated rats.

Data set [2] addresses T2, estrogen receptors in the human endometrium (Homo sapiens, UniProt P03372).
T2 construct: estrogen receptors in the human endometrium; host or cells: human endometrium (nuclei)
T2 sequence (P03372 1-595): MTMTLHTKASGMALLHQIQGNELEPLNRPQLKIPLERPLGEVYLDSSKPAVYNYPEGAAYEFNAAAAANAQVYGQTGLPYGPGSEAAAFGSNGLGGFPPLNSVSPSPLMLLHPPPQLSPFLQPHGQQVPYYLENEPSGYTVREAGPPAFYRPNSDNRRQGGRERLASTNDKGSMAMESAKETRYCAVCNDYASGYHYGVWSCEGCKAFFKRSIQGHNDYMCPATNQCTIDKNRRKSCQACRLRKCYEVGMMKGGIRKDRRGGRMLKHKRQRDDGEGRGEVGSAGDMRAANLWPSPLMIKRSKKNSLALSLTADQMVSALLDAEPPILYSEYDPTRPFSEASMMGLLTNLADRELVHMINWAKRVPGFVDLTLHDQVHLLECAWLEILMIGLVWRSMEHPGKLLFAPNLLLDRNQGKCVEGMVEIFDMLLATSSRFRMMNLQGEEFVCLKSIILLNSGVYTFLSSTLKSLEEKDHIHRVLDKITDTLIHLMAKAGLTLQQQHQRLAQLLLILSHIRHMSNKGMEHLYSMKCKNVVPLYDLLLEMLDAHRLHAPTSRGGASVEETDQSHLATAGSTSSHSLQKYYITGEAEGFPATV
The settings on record: Tseng et al. 1978; cited from earlier work.

Data set [3] addresses T3, rat uterine nuclear estrogen receptor (Rattus norvegicus, UniProt P06211).
T3 construct: rat uterine cytosol estrogen receptor; host or cells: rat uterus (cytosol and nuclear fractions)
T3 sequence (P06211 1-600): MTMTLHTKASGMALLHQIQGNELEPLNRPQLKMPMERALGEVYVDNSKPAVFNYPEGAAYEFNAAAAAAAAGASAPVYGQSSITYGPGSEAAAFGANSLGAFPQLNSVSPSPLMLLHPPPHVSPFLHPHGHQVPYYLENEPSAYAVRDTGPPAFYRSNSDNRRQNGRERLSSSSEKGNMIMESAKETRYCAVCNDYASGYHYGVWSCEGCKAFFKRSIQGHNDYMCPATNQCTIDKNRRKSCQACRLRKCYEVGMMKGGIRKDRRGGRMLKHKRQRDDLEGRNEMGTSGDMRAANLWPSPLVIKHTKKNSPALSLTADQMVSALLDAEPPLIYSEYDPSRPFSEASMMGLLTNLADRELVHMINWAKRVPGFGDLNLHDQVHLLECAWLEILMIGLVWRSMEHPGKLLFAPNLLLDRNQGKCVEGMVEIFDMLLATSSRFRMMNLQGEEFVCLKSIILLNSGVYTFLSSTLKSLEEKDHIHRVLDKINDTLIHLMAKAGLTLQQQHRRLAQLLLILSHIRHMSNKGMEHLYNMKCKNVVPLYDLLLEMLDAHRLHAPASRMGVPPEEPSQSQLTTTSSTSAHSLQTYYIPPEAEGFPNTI
The settings on record: cited from earlier work.

For data set [4] the following is noted: intravenous, two adult women, tritium labeled; cited from earlier work.
In another data set the test system is immature rat uterus. The conditions noted are these: subcutaneous, cited from earlier work.
Data set [5] concerns ovariectomized adult rats. As to the kind of experiment: Vaginal cornification bioassay after oral administration. The conditions noted are these: 0.1 and 0.3 mg/kg/day po. It counts as in vivo, rat. The source says:
Uterine weight increase in the rat is more commonly used as a measure of estrogenicity. […] In the early 1920s it was discovered that follicular fluid from the pig ovary contained a factor(s) that caused cornification/keratinization of the vaginal epithelium in the rat (Allen and Doisy, 1923, JAMA, 81, 819-821; Allen and Doisy, 1924, Am. J. Physiol., 69, 577-588). The so-called vaginal cornification response in rats subsequently provided a bioassay for testing estrogenicity. Vaginal epithelial cornification/keratinization in ovariectomized rats can be produced only by compounds considered to be true estrogens (Jones et al, 1973, Fert. Steril. 24, 284-291). […] Adult intact female CD rats were ovariectomized to induce estrogen deficiency. […] Castrate vaginal smears are indicative that complete ovariectomy was achieved. Treatment commenced following completion of the 7 days of smearing (day 0=first day of dosing). Animals were dosed, once daily for 7 consecutive days. Daily vaginal lavages continued to be obtained for 7 days after dosing was initiated in order to detect vaginal cornification, as an indication of an estrogenic response. A drop of vaginal washings was placed on a glass slide and examined by light microscopy to detect the presence or absence of cornified epithelial cells. Vaginal lavages were obtained prior to dosing on days 0-6 and prior to necropsy on day 7. […]

The subject of data set [6] is human breast cancer cells (MCF-7). The conditions noted are these: MCF-7, long term tissue culture; cited from earlier work.
Data set [7] addresses T4, rat uterine cytosol estrogen receptor (Rattus norvegicus, UniProt P06211).
T4 construct: rat uterine cytosol estrogen receptor; host or cells: rat uterus (cytosol and nuclear fractions)
T4 sequence (P06211 1-600): T3 sequence (P06211 1-600)
The settings on record: cited from earlier work.

Another data set concerns nonpregnant ewes. The conditions noted are these: intravenously administered; cited from earlier work.
Where [8] appears, read: 30 μg/kg po twice daily for 4 days.
Where [9] appears, read: 100 μg/kg po twice daily for 4 days.
The mark [10] stands for this setting: 300 μg/kg po twice daily for 4 days.
The mark [11] stands for this setting: 1000 μg/kg po twice daily for 4 days.
Where [12] appears, read: 3000 μg/kg po twice daily for 4 days.

We go through five compounds from patent US7732430B2, “Drug delivery system comprising a tetrahydroxilated estrogen for use in hormonal contraception” (Pantarhei Bioscience B.V., priority 2001, dated 2010).

Structures are written as SMILES. Where two headings read alike, the source gives them in different places.

As for `C[C@]12CCC(=O)C[C@@H]1CC[C@@H]1[C@@H]2CC[C@]2(C)[C@@H](O)CC[C@@H]12` [5α-dihydrotestosterone, reference compound], the “relative binding affinity for human SHBG” value in [1] is recorded as “in this order, show an increased relative binding affinity”.

Regarding `C[C@]12CC[C@@H]3c4ccc(O)cc4CC[C@H]3[C@@H]1CC[C@@H]2O` [E2, 17β-estradiol, reference compound], the “ovulation blocked (rats of 8)” value with four-day cyclic rats (setting [8]) was “ineffective in inhibiting ovulation”; in the data set on four-day cyclic rats (setting [9]) it was 7 of 8; in the data set with four-day cyclic rats (setting [10]), 8 of 8; in the data set with four-day cyclic rats (setting [11]), 8 of 8; in the data set with four-day cyclic rats (setting [12]) it was 8 of 8. This compound displayed an ED50 in the data set with four-day cyclic rats (po twice daily for 4 days) of 0.03 to 0.1 mg/kg.

In the case of `C#C[C@]1(O)CC[C@H]2[C@@H]3CCc4cc(O)ccc4[C@H]3CC[C@@]21C` [EE, 17α-ethinyl estradiol, reference compound], in the data set on four-day cyclic rats (po twice daily for 4 days), the 50% effective dose (ED50) is 0.01 mg/kg.

In the case of `C[C@]12CC[C@@H]3c4ccc(O)cc4CC[C@H]3[C@@H]1[C@@H](O)[C@@H](O)[C@@H]2O` [estetrol, 1,3,5(10)-estratrien-3,15α,16α,17β-tetrol], the “relative binding, % of 17β-estradiol” value in [2] is listed as 1.5%. Also, the “relative binding affinity, 17β-estradiol = 100%” value in data set [3] was 0.3%; in [7], 0.5%. Further, in [4], the excretion result is “rapidly and completely excreted in urine as the glucosiduronate”. In data set [4], the metabolism result is given as “virtually no metabolism except for conjugation”. Moreover, the uterotrophic activity entry with immature rat uterus (Holinka et al. 1979) and in the data set on immature rat uterus (Holinka et al. 1980) was “very weak uterotrophic activity” in each case. Moreover, the “onset of vaginal cornification (animals responding at days 1-3)” value in [5] is reported as “as fast as in EE-treated animals”. In addition, in data set [6], the “agonistic potency relative to 17β-estradiol in cell proliferation” value is 2%. The “binding to human SHBG” value in [1] ([3H]DHT as labeled ligand) and in data set [1] ([3H]estradiol as labeled ligand) was “does not bind at all” in each case. In data set [1], the “relative binding affinity for human SHBG” value is “negligible”. Further, the “ovulation blocked (rats of 8)” value is listed as “failed to inhibit ovulation” in the data set on four-day cyclic rats (setting [8]); 2 of 8 with four-day cyclic rats (setting [9]); 5 of 8 in the data set with four-day cyclic rats (setting [10]); 7 of 8 in the data set on four-day cyclic rats (setting [11]); 8 of 8 with four-day cyclic rats (setting [12]). The compound further gave an ED50 in the data set with four-day cyclic rats (po twice daily for 4 days) of 0.182 mg/kg. For the same compound, the “antiovulatory potency compared with E2” value in the data set with four-day cyclic rats (po twice daily for 4 days) was “approximates the antiovulatory potency of E2”. In addition, the “antiovulatory potency, times less potent than ethinylestradiol” value in the data set with four-day cyclic rats (po twice daily for 4 days) is listed as 18 times. Also, in the data set with nonpregnant ewes, the “potency in uterine vasodilation, times less potent than estriol and 17β-estradiol” value was 15 to 30 times.

As to `C[C@]12CC[C@H]3[C@@H](CCC4=CC(=O)CC[C@@]43C)[C@@H]1CC[C@@H]2O` [testosterone, reference compound], the “relative binding affinity for human SHBG” value in data set [1] is reported as “in this order, show an increased relative binding affinity”.
